Activity calls are given as the source filed them. No cut-off for these calls is given here.

The target in data set [1] is Cathepsin B (Homo sapiens) (UniProt P07858). As to the kind of experiment: Inhibition of human cathepsin B by fluorescence assay.
Data set [2] has as its target Procathepsin L (Homo sapiens) (UniProt P07711). As to the kind of experiment: Inhibition of human cathepsin L by fluorescence assay.
For data set [3], the target named is T1, Cathepsin S (Homo sapiens, UniProt P25774). As to the kind of experiment: Inhibition of human cathepsin S by fluorescence assay.
Another data set addresses T2, Cathepsin K (Homo sapiens, UniProt P43235).
T2 sequence (P43235 whole entry): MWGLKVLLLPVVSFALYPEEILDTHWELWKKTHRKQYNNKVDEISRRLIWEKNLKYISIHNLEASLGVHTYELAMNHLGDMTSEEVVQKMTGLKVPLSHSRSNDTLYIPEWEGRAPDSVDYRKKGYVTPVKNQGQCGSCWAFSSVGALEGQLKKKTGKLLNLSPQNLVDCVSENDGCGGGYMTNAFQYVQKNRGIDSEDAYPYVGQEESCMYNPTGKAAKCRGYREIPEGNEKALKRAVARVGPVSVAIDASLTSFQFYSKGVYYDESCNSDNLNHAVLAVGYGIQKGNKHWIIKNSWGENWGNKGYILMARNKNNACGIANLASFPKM
The data set can be described thus: Inhibition of human cathepsin K by fluorescence assay.

The target of data set [4] is T1, Cathepsin S. As to the kind of experiment: Inhibition of cathepsin S-mediated proteolytic cleavage of MHC2 associated invariant chain in human JY cells assessed as accumulation of lip10 by Western blot analysis. The data set is classed as cell-based. On the technique in general: Immunoblotting shows a protein as a band on a membrane.
The nature of data set [5]: Chemical stability of the compound assessed as half life at 1.25 mM at pH 7.5 by nitrile war-head stability assay in presence of GSH. The data set is classed as physicochemical.
Data set [6] concerns the target T3, Cathepsin S (Mus musculus, UniProt O70370). The data set can be described thus: Inhibition of mouse cathepsin S by fluorescence assay.
A further data set relates to Mus musculus. As to the kind of experiment: Induction of Lip10 accumulation in C57/BL6 mouse spleen at 0.3 mg/kg, po after 4 hrs by Western blot analysis. The data set is classed as functional, organism-based. Details: dose 0.3 mg/kg. The following applies: C57Bl/6.
Data set [7] can be described thus: Plasma clearance in Wistar rat at 2 mg/kg, iv and 10 mg/kg, po. It counts as ADME, organism-based.
Data set [8] is described as follows: Volume of distribution at steady state in Wistar rat at 2 mg/kg, iv and 10 mg/kg, po. The data set is classed as ADME, organism-based. Conditions: in vivo, read-out: Vdss.
The nature of data set [9]: Oral bioavailability in Wistar rat at 10 mg/kg. The data set is classed as ADME, organism-based. Conditions: in vivo.
In data set [10] the target is T3, Cathepsin S. As to the kind of experiment: Inhibition of cathepsin S-mediated proteolytic cleavage of MHC2 associated invariant chain in mouse splenocytes assessed as accumulation of lip10 by Western blot analysis. The data set is classed as cell-based.
The nature of data set [11]: Ratio of drug level in spleen to plasma in C57/BL6 mouse at 0.3 mg/kg, po. It counts as ADME, organism-based, C57Bl/6. Also noted: dose 0.3 mg/kg, route oral.

T1 sequence (P25774 whole entry): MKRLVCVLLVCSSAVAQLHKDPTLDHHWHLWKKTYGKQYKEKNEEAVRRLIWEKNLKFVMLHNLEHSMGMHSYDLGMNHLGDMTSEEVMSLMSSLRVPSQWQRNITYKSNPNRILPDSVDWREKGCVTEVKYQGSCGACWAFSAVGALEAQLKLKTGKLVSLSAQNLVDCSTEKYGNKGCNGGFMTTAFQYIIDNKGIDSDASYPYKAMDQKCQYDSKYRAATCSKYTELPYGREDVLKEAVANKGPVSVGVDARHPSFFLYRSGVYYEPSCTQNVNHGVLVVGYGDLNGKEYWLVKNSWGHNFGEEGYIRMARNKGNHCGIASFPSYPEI
T3 sequence (O70370 whole entry): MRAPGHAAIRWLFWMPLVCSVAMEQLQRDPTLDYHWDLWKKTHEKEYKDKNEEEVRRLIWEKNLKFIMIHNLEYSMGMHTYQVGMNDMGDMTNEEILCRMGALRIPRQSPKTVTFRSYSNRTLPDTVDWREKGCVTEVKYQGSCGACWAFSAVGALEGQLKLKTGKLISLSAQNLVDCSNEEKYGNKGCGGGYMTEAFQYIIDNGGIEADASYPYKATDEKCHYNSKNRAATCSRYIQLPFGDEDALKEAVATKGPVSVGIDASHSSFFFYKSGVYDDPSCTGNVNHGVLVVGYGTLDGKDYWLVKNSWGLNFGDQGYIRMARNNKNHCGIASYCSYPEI
Procathepsin L (Homo sapiens), sequence (P07711 114-333 limits assumed): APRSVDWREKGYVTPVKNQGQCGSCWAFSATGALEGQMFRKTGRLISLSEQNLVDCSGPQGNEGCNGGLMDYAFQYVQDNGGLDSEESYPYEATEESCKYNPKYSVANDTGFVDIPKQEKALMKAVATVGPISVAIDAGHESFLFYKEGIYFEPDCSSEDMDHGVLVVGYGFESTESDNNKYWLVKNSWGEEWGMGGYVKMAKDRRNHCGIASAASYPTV

As to `CCN1CCN(CCCOc2ccc(-c3cc4c(ncn4C)c(C#N)n3)cc2C(F)(F)F)CC1`, the inhibition entry in data set [1] and in data set [2] was “inactive” in each case. Besides, the IC50 (as a rule, the midpoint of a concentration-inhibition curve) against Cathepsin S [3] came to 7.2 nM; at Cathepsin K it was 331 nM; on Cathepsin S [4], 63 nM; on Cathepsin S [6], 2.6 nM; at Cathepsin S [10], 6.5 nM. Besides, in [5], the half-life – broadly, the time in which the quantity being followed falls by half – at 1250 µM is more than 100 h. For the same compound, the result in the data set on Mus musculus was Active. The clearance in data set [7] stood at 28 mL/min/kg. For the same compound, in data set [8], the Vd came out at 2 L/kg. The bioavailability – broadly, the share of a dose that reaches the circulation, judged against a reference dose that is usually intravenous – in data set [9] is 9%. Also, the partition ratio (Kp) (as a rule, the ratio of the level in a tissue or fluid to that in plasma or blood) in data set [11] was determined as 50.

For the origin of these results see ChEMBL document CHEMBL1208745, “6-Phenyl-1H-imidazo[4,5-c]pyridine-4-carbonitrile as cathepsin S inhibitors” (Bioorg Med Chem Lett, 2010).
